Reference: patent US10588921B2, “Drug for the treatment of cholesterol accumulation disorders” (NATIONAL UNIVERSITY CORPORATION KUMAMOTO UNIVERSITY, priority 2013, dated 2020)

Assays:
p62 [1] = experiment: Count of insoluble p62 granules in HLCs (IN CELL ANALYZER); type: cell-based, human; details: 1 mM HPCD, 4 days; FIG. 24
Method: Alkaline phosphatase staining was performed using the Leukocyte Alkaline Phosphatase kit (SIGMA). For immunocytochemistry, cells were fixed with PBS containing 4% paraformaldehyde for 30 min at 4° C. For the molecules localized in nucleus, samples were treated with 0.2% Triton X-100 for 15 min at room temperature (RT). The cells were washed three times with PBS containing 2% FBS and then incubated overnight at 4° C. in PBS containing 2% FBS with primary antibodies. Nucleuses were stained with Propidium Iodide (PI, WAKO, Japan) and 1 mg/ml Hoechst 33258 (Invitrogen). The list of the primary and secondary antibodies is described in Table 3. For Filipin staining, samples were washed with PBS three times after the fixing and incubated with PBS containing 1.5 mg/ml glycine for 10 min at RT. The samples were then treated with PBS containing 10% FBS and 50 mg/ml Filipin (SIGMA). The data was calculated by UV absorption (360/460) and analyzed with Developer Toolbox software of IN CELL ANALYZER 6000 (GE Healthcare). The number of insoluble p62 granules were counted by IN CELL ANALYZER 6000 (GE Healthcare). […]
(§1) HLCs were culture with 1 mM 2-hydroxypropylcyclodextrins (HPCDs) for 4 days, and ATP level, expression levels of LC3 and p62, and insoluble p62 granules were measured.

NPC child patients = details: intravenous instillation 2500 mg/kg per time, 1 to 3 times per week, more than 1 year; cited from earlier work
NPC-derived HLCs [2] = experiment: Measurement of ATP in HLCs; type: cell-based, human; details: 1 mM HPCD, 4 days; FIG. 21
Method: Hepatocyte-like cells derived from the iPSC lines were cultured in DMEM medium in the absence of glucose for 24 hours and were then cultured in the DMEM medium containing 10% FBS and high glucose for 6 hours. ATP was measured by ATP measurement Kit (TOYO INK), according to the manufacturer's protocol.
as §1

p62 [3] = experiment: Immunoblot of insoluble p62 in HLCs; type: cell-based, human; details: 1 mM HPCD, 4 days; FIG. 23
Method: (§2) Protein lysates were separated by SDS-PAGE and transferred to PVDF membrane. LC3-I and LCS3-II were detected by anti-LC3 antibody (Cell Signaling). The data are normalized to α-tubulin expression. The HLCs were solved in RIPA buffer and then insoluble p62 was collected as a pellet after the centrifuge of the samples.
as §1

normal mice = experiment: Acute toxicity test in normal mice; type: in vivo, mouse; details: 14.4 mM, 19.18 ml/g subcutaneous, 8-week-old normal mice; FIG. 34
Method: To confirm the excellent safety of HPGCD, acute toxicity was tested using normal mice. 14.4 mM HPBCD or HPGCD were injected in the amount of 19.18 ml/g into subcutaneous tissues of 8-week-old mice (n=10), and then survival rates were calculated.

LC3 = experiment: Immunoblot of LC3 expression in HLCs; type: cell-based, human; details: 1 mM HPCD, 4 days; FIG. 22
Method: as §2, §1

isolated erythrocyte = details: in vitro; cited from earlier work
NPC-derived HLCs [4] = type: cell-based, human; details: cells treated during HLC differentiation; FIG. 20
NPC1-defective cells = details: reported; cited from earlier work
[5] = test system: Npc1 gene-defective (Npc1−/−) mice; details: cited from earlier work
NPC-derived HLCs [6] = type: cell-based, human; details: for cholesterol accumulation in NPC-HLCs (filipin staining): 1 mM hydroxypropyl-cyclodextrin, FIG. 18
Method: For hepatocyte-like cell (HLC) induction, the culture medium of semi-confluent human iPS cells were switched from the iPS medium to the definitive endoderm differentiation medium containing RPMI1640 supplemented with 2% B27 (Life technologies), 100 ng/m1 Activin A and 1 mM Sodium butyrate (NaB, SIGMA). The NaB concentration is changed in 0.5 mM on day 2. On day 4, the cells were harvested and re-seeded onto Matrigel-coated dishes in hepatic differentiation medium containing DMEM supplemented with 20% KSR, 1 mM glutamine, 1 mM NEAA, 0.1 mM 2-mercaptoethanol (SIGMA), 1% Dimethyl sulfoxide (DMSO, SIGMA). CXCR4 expressions were examined by FACS on day 4. On day 11, the cells were harvested and re-cultured in the hepatic maturation medium containing L15 medium (SIGMA) supplemented with 8.3% FBS, 8.3% tryptose phosphate broth (SIGMA), 10 mM hydrocortisone 21-hemisuccinate (SIGMA), 1 mM insulin (SIGMA), 2 mM glutamine, lOng/ml Hepatocyte growth factor (HGF, R & D) and 20 ng/ml Oncostatin M (OSM, R & D). On day 18, the cells were used for various experiments. For the hydroxypropyl cyclodextrin treatments, HLCs were cultured with 0.1 mM or 1 mM of the hydroxypropyl cyclodextrins for four days. For Annexin and TUNEL stainings, HLCs are cultured for four days and a week from day 18, respectively.
Alkaline phosphatase staining was performed using the Leukocyte Alkaline Phosphatase kit (SIGMA). For immunocytochemistry, cells were fixed with PBS containing 4% paraformaldehyde for 30 min at 4° C. For the molecules localized in nucleus, samples were treated with 0.2% Triton X-100 for 15 min at room temperature (RT). The cells were washed three times with PBS containing 2% FBS and then incubated overnight at 4° C. in PBS containing 2% FBS with primary antibodies. Nucleuses were stained with Propidium Iodide (PI, WAKO, Japan) and 1 mg/ml Hoechst 33258 (Invitrogen). The list of the primary and secondary antibodies is described in Table 3. For Filipin staining, samples were washed with PBS three times after the fixing and incubated with PBS containing 1.5 mg/ml glycine for 10 min at RT. The samples were then treated with PBS containing 10% FBS and 50 mg/ml Filipin (SIGMA). The data was calculated by UV absorption (360/460) and analyzed with Developer Toolbox software of IN CELL ANALYZER 6000 (GE Healthcare). The number of insoluble p62 granules were counted by IN CELL ANALYZER 6000 (GE Healthcare). To investigate glycogen accumulation, Periodic acid Schiff (PAS) staining of hepatocyte-like cells were performed by PAS staining solution (Muto Pure chemicals, Tokyo, Japan), according to the manufacturer's protocol.
The inventors therefore treated the HLCs derived from normal and NPC-iPS cell lines with a series of 2-hydroxypropyl-cyclodextrins with different cavity sizes, and observed effect of a series of hydroxypropyl-cyclodextrins. HLCs were cultured with 1 mM of the indicated hydroxypropyl-cyclodextrin for 4 days, stained with filipin and analyzed with an IN CELL ANALYSER (GE Healthcare) (FIG. 18).
(§3) The size of HLCs is decreased by the treatments with HPBCD and HPGCD (data not shown). Effects of various concentration of HPBCD and HPGCD in NPC-derived HLCs was observes. HLCs were cultured with HPBCD or HPGCD for 4 days, stained with filipin and analyzed with an IN CELL ANALYSER (GE Healthcare).

NPC-derived HLCs [7] = experiment: Cell size of HLCs; type: cell-based, human; details: data not shown
Method: The cell sizes of albumin-positive cells was calculated by Developer Toolbox software of IN CELL ANALYZER 6000 (GE Healthcare).
as §3

rats = details: acute intravenous administration to rats; cited from earlier work

**Q.** With `CC(O)COC[C@H]1O[C@@H]2O[C@H]3[C@H](O)[C@@H](O)[C@@H](O[C@H]4[C@H](O)[C@@H](O)[C@@H](O[C@H]5[C@H](O)[C@@H](O)[C@@H](O[C@H]6[C@H](O)[C@@H](O)[C@@H](O[C@H]7[C@H](O)[C@@H](O)[C@@H](O[C@H]8[C@H](O)[C@@H](O)[C@@H](O[C@H]1[C@H](O)[C@H]2O)O[C@@H]8COCC(C)O)O[C@@H]7COCC(C)O)O[C@@H]6COCC(C)O)O[C@@H]5COCC(C)O)O[C@@H]4COCC(C)O)O[C@@H]3COCC(C)O` (stereo partly drawn) [HPBCD, 2-hydroxypropyl-β-cyclodextrin] as the molecule, how does the “proportion of HLCs carrying more than 40 granules of insoluble p62 aggregation” value (p62 [1]) read?
**A.** The value was “greatly reduced”.

**Q.** What about the nervous symptom (NPC child patients) of the same molecule?
**A.** The nervous symptom was “has not been improved yet”.

**Q.** And the “splenohepatomegaly and brain wave” value (NPC child patients)?
**A.** The value was “certain effect of reduction of splenohepatomegaly and improvement in a brain wave”.

**Q.** And the ATP level (NPC-derived HLCs [2])?
**A.** The ATP level was “recovered”.

**Q.** What about the “amount of insoluble p62” value (p62 [3]) of the same molecule?
**A.** Its value is “reduced the amount of insoluble p62”.

**Q.** What about the “survival after injection (acute toxicity)” value (normal mice) of the same molecule?
**A.** The value was “Almost all mice injected with HPBCD dies up to 72 hours after injection”.

**Q.** And the “expression level of LC3” value (LC3)?
**A.** The value was “recovered to normal levels”.

**Q.** And the “hemolytic activity (order)” value (isolated erythrocyte)?
**A.** The value was “HPBCD>HPACD>HPGCD”.

**Q.** What about the “free cholesterol accumulation, treatment during HLC differentiation” value (NPC-derived HLCs [4]) of the same molecule?
**A.** Its value is “effective at the intermediate stages in hepatic differentiation”.

**Q.** What about the “cholesterol accumulation in NPC1-defective cells” value (NPC1-defective cells) of the same molecule?
**A.** The value was “effective for reducing of cholesterol accumulation”.

**Q.** What about the “improving effect compared with systemic administration” value ([5]; directly administered into the brain) of the same molecule?
**A.** The value was “increased a few hundreds times”.

**Q.** And the “medical state or survival” value ([5]; intravenous administration)?
**A.** The value was “effective in improving the medical state or prolonging survival”.

**Q.** What about the “cholesterol accumulated in hepatocyte-like cells derived from NPC” value (NPC-derived HLCs [6]) of the same molecule?
**A.** Its value is “removed cholesterol accumulated in hepatocyte-like cells derived from NPC”.

**Q.** And the “function of the hepatocyte-like cells” value (NPC-derived HLCs [6])?
**A.** The value was “recovered the function of the hepatocyte-like cells”.

**Q.** What about the “cholesterol accumulation in NPC-HLCs (filipin staining)” value (NPC-derived HLCs [6]; 4 days) of the same molecule?
**A.** The value was “significantly decreased”.

**Q.** And the “cholesterol accumulation in NPC-derived HLCs (filipin staining)” value (NPC-derived HLCs [6]; low concentration 100 μM, 4 days, FIG. 19)?
**A.** The value was “ineffective for reducing cholesterol accumulation”.

**Q.** And the “size of HLCs” value (NPC-derived HLCs [7])?
**A.** Its value is “decreased”.

**Q.** Which “intravenous dose showing lethality to 50% of population (LD50 value)” value (rats) does the source give for `OC[C@H]1O[C@@H]2O[C@H]3[C@H](O)[C@@H](O)[C@@H](O[C@H]4[C@H](O)[C@@H](O)[C@@H](O[C@H]5[C@H](O)[C@@H](O)[C@@H](O[C@H]6[C@H](O)[C@@H](O)[C@@H](O[C@H]7[C@H](O)[C@@H](O)[C@@H](O[C@H]1[C@H](O)[C@H]2O)O[C@@H]7CO)O[C@@H]6CO)O[C@@H]5CO)O[C@@H]4CO)O[C@@H]3CO` [α-cyclodextrin] here?
**A.** The value was 1000 mg/kg.

**Q.** With `OC[C@H]1O[C@@H]2O[C@H]3[C@H](O)[C@@H](O)[C@@H](O[C@H]4[C@H](O)[C@@H](O)[C@@H](O[C@H]5[C@H](O)[C@@H](O)[C@@H](O[C@H]6[C@H](O)[C@@H](O)[C@@H](O[C@H]7[C@H](O)[C@@H](O)[C@@H](O[C@H]8[C@H](O)[C@@H](O)[C@@H](O[C@H]1[C@H](O)[C@H]2O)O[C@@H]8CO)O[C@@H]7CO)O[C@@H]6CO)O[C@@H]5CO)O[C@@H]4CO)O[C@@H]3CO` [β-cyclodextrin] as the molecule, how does the “intravenous dose showing lethality to 50% of population (LD50 value)” value (rats) read?
**A.** The value was 788 mg/kg.

**Q.** With 2-Hydroxypropyl-α-cyclodextrin [HPACD] as the molecule, how does the “hemolytic activity (order)” value (isolated erythrocyte) read?
**A.** Its value is “HPBCD>HPACD>HPGCD”.

**Q.** What about the “activity on hepatocyte-like cells differentiation-induced from NPC patient-derived iPS cells” value (NPC-derived HLCs [6]) of the same molecule?
**A.** Its value is “no activity at all”.

**Q.** And the “cholesterol accumulation in NPC-HLCs (filipin staining)” value (NPC-derived HLCs [6]; 4 days)?
**A.** Its value is “did not show any effect on cholesterol accumulation”.

**Q.** With `OC[C@H]1O[C@@H]2O[C@H]3[C@H](O)[C@@H](O)[C@@H](O[C@H]4[C@H](O)[C@@H](O)[C@@H](O[C@H]5[C@H](O)[C@@H](O)[C@@H](O[C@H]6[C@H](O)[C@@H](O)[C@@H](O[C@H]7[C@H](O)[C@@H](O)[C@@H](O[C@H]8[C@H](O)[C@@H](O)[C@@H](O[C@H]9[C@H](O)[C@@H](O)[C@@H](O[C@H]1[C@H](O)[C@H]2O)O[C@@H]9CO)O[C@@H]8CO)O[C@@H]7CO)O[C@@H]6CO)O[C@@H]5CO)O[C@@H]4CO)O[C@@H]3CO` [γ-cyclodextrin] as the molecule, how does the “intravenous dose showing lethality to 50% of population (LD50 value)” value (rats) read?
**A.** Its value is over 3750 mg/kg.
